Experimental findings from patent US10894782B2, “Modulators of P97 AAA ATPase activity” (University of Pittsburgh—Of the Commonwealth System of …, priority 2016, dated 2021) are described below.

P97, sequence (P55072 whole entry): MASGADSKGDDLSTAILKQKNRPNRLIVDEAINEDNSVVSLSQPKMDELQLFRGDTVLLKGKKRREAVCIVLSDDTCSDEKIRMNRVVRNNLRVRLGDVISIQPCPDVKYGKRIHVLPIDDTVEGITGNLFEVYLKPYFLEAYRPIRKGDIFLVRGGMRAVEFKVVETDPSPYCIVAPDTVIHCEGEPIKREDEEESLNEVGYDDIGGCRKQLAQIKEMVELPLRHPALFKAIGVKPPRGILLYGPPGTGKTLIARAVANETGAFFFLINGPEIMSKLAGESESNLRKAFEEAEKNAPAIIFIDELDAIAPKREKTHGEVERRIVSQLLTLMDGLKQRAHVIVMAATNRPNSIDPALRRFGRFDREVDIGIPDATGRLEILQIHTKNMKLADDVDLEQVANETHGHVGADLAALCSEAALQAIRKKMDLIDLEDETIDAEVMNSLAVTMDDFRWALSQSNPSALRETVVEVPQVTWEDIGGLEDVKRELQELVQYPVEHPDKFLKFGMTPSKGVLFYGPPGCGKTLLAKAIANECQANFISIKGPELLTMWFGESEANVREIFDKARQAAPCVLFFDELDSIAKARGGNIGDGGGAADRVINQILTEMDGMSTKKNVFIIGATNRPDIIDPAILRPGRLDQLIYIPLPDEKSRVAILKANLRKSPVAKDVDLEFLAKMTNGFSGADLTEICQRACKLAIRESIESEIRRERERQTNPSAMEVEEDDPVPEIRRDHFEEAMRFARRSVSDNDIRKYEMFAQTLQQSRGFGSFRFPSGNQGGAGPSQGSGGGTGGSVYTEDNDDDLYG

One assay concerns the target P97 (Homo sapiens (Human), UniProt P55072). The experiment in a line: P97 Biomolgreen ATPase assay, 200 μM ATP. The assay is classed as biochemical. Conditions: P97 Biomolgreen, IC50 (μM).
Compound `[2H]C1([2H])C([2H])([2H])C([2H])([2H])C([2H])(Sc2nnc(COc3ccc(C#CCNCCN4CCN(C)CC4)c(C)c3)n2-c2cccnc2)C1([2H])[2H]` [Compound 68] showed an IC50 of 0.17 µM.
Turning to `[2H]C1([2H])C([2H])([2H])C([2H])([2H])C([2H])(Sc2nnc(COc3ccc(C#CCOC(=O)NCCN4CCCN(C(C)C)CC4)c(C)c3)n2-c2cccnc2)C1([2H])[2H]` [Compound 32], the IC50 was found to be 0.023 µM.
`[2H]C1([2H])C([2H])([2H])C([2H])([2H])C([2H])(Sc2nnc(COc3ccc(C#CC(C)N4CCOCC4)c(C)c3)n2-c2cccnc2)C1([2H])[2H]` (centres unmarked) [Compound 3] came in with an IC50 of 0.17 µM.
Compound `[2H]C1([2H])C([2H])([2H])C([2H])([2H])C([2H])(Sc2nnc(COc3ccc(C#CCOC(=O)NCCc4ncnn4C)c(C)c3)n2-c2cccnc2)C1([2H])[2H]` [Compound 31] came in with an IC50 of 0.052 µM.
The compound `[2H]C1([2H])C([2H])([2H])C([2H])([2H])C([2H])(Sc2nnc(COc3ccc(C#CCO)c(C)c3)n2-c2cccnc2)C1([2H])[2H]` [Compound 93] displayed an IC50 of 0.048 µM.

The same assay, now with this note: read-out: P97 Biomolgreen, IC50.
For `Cc1cc(OCc2nnc(SC3C=CCCC3)n2-c2cccnc2)ccc1C#CCN(C)S(C)(=O)=O` (centres unmarked) [Compound 25], the IC50 was 0.066 µM.
`Cc1cc(OCc2nnc(SC3C=CCCC3)n2-c2cccnc2)ccc1C#CCOC(=O)NCCN1CCN(C(C)C)CC1` (centres unmarked) [Compound 60]: the IC50 is 0.019 µM.
With `Cc1cc(OCc2nnc(SC3CC3)n2-c2cccnc2)ccc1C#CCNC(=O)OC(C)(C)C` [Compound 54], the IC50 amounted to 2 µM.
`Cc1cc(OCc2nnc(SC3CCCC3)n2-c2cccnc2)ccc1C#CCOC(=O)NCCNC(=O)CC1[C@H]2CC3C[C@H](C2)C[C@H]1C3` (some centres unmarked) [Compound 110]: the IC50 came to 0.06 µM.
`OCC#Cc1cc(F)c(OCc2nnc(SC3C=CCCC3)n2-c2cccnc2)cc1F` (centres unmarked) [Compound 114]: the IC50 came out at 0.02 µM.
As to `CN1CCN(CCNC(=O)OCC#Cc2ccc(OCc3nnc(SC4C=CCCC4)n3-c3cccnc3)cc2F)CC1` (centres unmarked) [Compound 77], the IC50 stood at 0.02 µM.
Consider `CN1CCC(NC(=O)OCC#Cc2c(F)cc(OCc3nnc(SC4C=CCCC4)n3-c3cccnc3)cc2F)CC1` (centres unmarked) [Compound 120], for which the IC50 amounted to 0.012 µM.
As to `Cc1cc(OCc2nnc(SC3CCCC3)n2-c2cccnc2)ccc1C#CCN1CCOCC1` [Compound 8], the IC50 was 0.039 µM.
With `Cc1cc(OCc2nnc(SC3CCCC3)n2-c2cccnc2)ccc1C#CCNC(=O)C(C)(C)C` [Compound 10], the IC50 stood at 0.092 µM.
As for `COC(=O)NCC#Cc1ccc(OCc2nnc(SC3CCCC3)n2-c2cccnc2)cc1C` [Compound 12], the IC50 is 0.029 µM.
For `Cc1cc(OCc2nnc(SC3C=CCCC3)n2-c2cccnc2)ccc1C#CC1(O)CN(C(=O)OC(C)(C)C)C1` (centres unmarked) [Compound 72], the 50% inhibitory concentration (IC50) was found to be 0.18 µM.
With `Cc1cc(OCc2nnc(CC3CCCC3)n2-c2cccnc2)ccc1C#CCOC(=O)NCCN1CCN(C(C)C)CC1` [Compound 66], the IC50 amounted to 0.12 µM.
The same measure, in the same setting: for `Cc1cc(OCc2nnc(SC3C=CCCC3)n2-c2cccnc2)ccc1C#CCOC(=O)NCCN1CCN(C(C)C)CC1` (centres unmarked) [Compound 90] the value was 0.084 µM.
Same read-out and setting: for `OCC#Cc1ccc(OCc2nnc(SC3C=CCCC3)n2-c2cccnc2)cc1F` (centres unmarked) [Compound 97] the value was 0.026 µM.
On the same count and under the same terms, for `CCC(=O)NCC#Cc1ccc(OCc2nnc(SCC(=O)CCl)n2-c2cccnc2)cc1C` [Compound 132] the value was 2.77 µM.

For orientation: IC50 means the point on the concentration scale where inhibition reaches its midpoint.
